According to PubChem BioAssay (NCI):
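Interpolation was linear, between the two tested concentrations surrounding the appropriate level; five concentrations were tested over 48 hours in 96-well plates. The concentration for 50% growth inhibition is given as GI50. TGI marks complete inhibition of growth.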

Key:
Test in all cases: NCI-60 cell line screen, 48 h
OVCAR-5 ovarian = tested on: OVCAR-5 ovarian
CAKI-1 renal = tested on: CAKI-1 renal
COLO 205 colon = tested on: COLO 205 colon
A498 renal = tested on: A498 renal
MDA-MB-435 = tested on: MDA-MB-435
DU-145 prostate = tested on: DU-145 prostate
SK-OV-3 ovarian = tested on: SK-OV-3 ovarian
K-562 leukemia = tested on: K-562 leukemia
SN12C renal = tested on: SN12C renal
NCI/ADR-RES ovarian = tested on: NCI/ADR-RES ovarian
ACHN renal = tested on: ACHN renal
NCI-H522 lung = tested on: NCI-H522 lung
SF-295 CNS = tested on: SF-295 CNS
NCI-H460 lung = tested on: NCI-H460 lung
IGROV1 ovarian = tested on: IGROV1 ovarian
OVCAR-8 ovarian = tested on: OVCAR-8 ovarian
SR leukemia = tested on: SR leukemia
UACC-62 melanoma = tested on: UACC-62 melanoma
MCF7 breast = tested on: MCF7 breast
TK-10 renal = tested on: TK-10 renal
NCI-H23 lung = tested on: NCI-H23 lung
OVCAR-3 ovarian = tested on: OVCAR-3 ovarian
HCT-116 colon = tested on: HCT-116 colon
OVCAR-4 ovarian = tested on: OVCAR-4 ovarian
HS 578T breast = tested on: HS 578T breast
NCI-H226 lung = tested on: NCI-H226 lung
KM12 colon = tested on: KM12 colon
PC-3 prostate = tested on: PC-3 prostate
MOLT-4 leukemia = tested on: MOLT-4 leukemia
BT-549 breast = tested on: BT-549 breast
SF-539 CNS = tested on: SF-539 CNS
SK-MEL-28 melanoma = tested on: SK-MEL-28 melanoma
M14 melanoma = tested on: M14 melanoma
SW-620 colon = tested on: SW-620 colon
786-0 renal = tested on: 786-0 renal
SK-MEL-5 melanoma = tested on: SK-MEL-5 melanoma
SNB-19 CNS = tested on: SNB-19 CNS
RXF 393 renal = tested on: RXF 393 renal
HCT-15 colon = tested on: HCT-15 colon
HT29 colon = tested on: HT29 colon
U251 CNS = tested on: U251 CNS
LOX IMVI melanoma = tested on: LOX IMVI melanoma
A549 NSCLC = tested on: A549 NSCLC
HL-60(TB) leukemia = tested on: HL-60(TB) leukemia
HOP-62 NSCLC = tested on: HOP-62 NSCLC
SF-268 CNS = tested on: SF-268 CNS
UACC-257 melanoma = tested on: UACC-257 melanoma
MALME-3M melanoma = tested on: MALME-3M melanoma
RPMI-8226 leukemia = tested on: RPMI-8226 leukemia
T-47D breast = tested on: T-47D breast
HCC-2998 colon = tested on: HCC-2998 colon
HOP-92 NSCLC = tested on: HOP-92 NSCLC
MDA-MB-468 breast = tested on: MDA-MB-468 breast

For `CC[C@]12C=CCN3CC[C@@]4(c5ccc(OC)cc5N(C)[C@H]4[C@@](O)(C(=O)OC)[C@@H]1OC(=O)CCCC[P+](c1ccc(OC)cc1)(c1ccc(OC)cc1)c1ccc(OC)cc1)[C@@H]32`, the GI50 (OVCAR-5 ovarian) was 2130 nM, the TGI (OVCAR-5 ovarian) was 7150 nM and the GI50 (CAKI-1 renal) was 15200 nM. For the same compound, the TGI (CAKI-1 renal) was 29800 nM, the GI50 (COLO 205 colon) was 214 nM and the TGI (COLO 205 colon) was 450 nM. For the same compound, the GI50 (A498 renal) was 2930 nM, the TGI (A498 renal) was 11400 nM and the GI50 (MDA-MB-435) was 521 nM. It also gave a TGI (MDA-MB-435) of 1830 nM, a GI50 (DU-145 prostate) of 1600 nM and a TGI (DU-145 prostate) of 12300 nM. The GI50 (SK-OV-3 ovarian) was 1400 nM, the TGI (SK-OV-3 ovarian) was 4520 nM and the GI50 (K-562 leukemia) was 675 nM. It also gave a TGI (K-562 leukemia) of 2530 nM, a GI50 (SN12C renal) of 1180 nM and a TGI (SN12C renal) of 3070 nM. For the same compound, the GI50 (NCI/ADR-RES ovarian) was 20500 nM, the TGI (NCI/ADR-RES ovarian) was 55900 nM and the GI50 (ACHN renal) was 6280 nM. It also gave a TGI (ACHN renal) of 19700 nM, a GI50 (NCI-H522 lung) of 341 nM and a TGI (NCI-H522 lung) of 1250 nM. The GI50 (SF-295 CNS) was 1970 nM, the TGI (SF-295 CNS) was 5440 nM and the GI50 (NCI-H460 lung) was 1150 nM. It also gave a TGI (NCI-H460 lung) of 11200 nM, a GI50 (IGROV1 ovarian) of 548 nM and a TGI (IGROV1 ovarian) of 1860 nM. The GI50 (OVCAR-8 ovarian) was 1990 nM, the TGI (OVCAR-8 ovarian) was 9600 nM and the GI50 (SR leukemia) was 428 nM. It also gave a TGI (SR leukemia) of 1700 nM, a GI50 (UACC-62 melanoma) of 963 nM and a TGI (UACC-62 melanoma) of 2200 nM. For the same compound, the GI50 (MCF7 breast) was 105 nM, the TGI (MCF7 breast) was 225 nM and the GI50 (TK-10 renal) was 1670 nM. For the same compound, the TGI (TK-10 renal) was 3800 nM, the GI50 (NCI-H23 lung) was 1190 nM and the TGI (NCI-H23 lung) was 4740 nM. The GI50 (OVCAR-3 ovarian) was 634 nM, the TGI (OVCAR-3 ovarian) was 2330 nM and the GI50 (HCT-116 colon) was 1300 nM. For the same compound, the TGI (HCT-116 colon) was 7760 nM, the GI50 (OVCAR-4 ovarian) was 1570 nM and the TGI (OVCAR-4 ovarian) was 11600 nM. It also gave a GI50 (HS 578T breast) of 1510 nM, a TGI (HS 578T breast) of 4990 nM and a GI50 (NCI-H226 lung) of 2030 nM. The TGI (NCI-H226 lung) was 7490 nM, the GI50 (KM12 colon) was 675 nM and the TGI (KM12 colon) was 1990 nM. It also gave a GI50 (PC-3 prostate) of 562 nM, a TGI (PC-3 prostate) of 5900 nM and a GI50 (MOLT-4 leukemia) of 1180 nM. It also gave a TGI (MOLT-4 leukemia) of 3210 nM, a GI50 (BT-549 breast) of 1250 nM and a TGI (BT-549 breast) of 2600 nM. For the same compound, the GI50 (SF-539 CNS) was 1520 nM, the TGI (SF-539 CNS) was 5440 nM and the GI50 (SK-MEL-28 melanoma) was 486 nM. For the same compound, the TGI (SK-MEL-28 melanoma) was 1730 nM, the GI50 (M14 melanoma) was 1200 nM and the TGI (M14 melanoma) was 2740 nM. The GI50 (SW-620 colon) was 1060 nM, the TGI (SW-620 colon) was 6430 nM and the GI50 (786-0 renal) was 2590 nM. It also gave a TGI (786-0 renal) of 8040 nM, a GI50 (SK-MEL-5 melanoma) of 1600 nM and a TGI (SK-MEL-5 melanoma) of 2950 nM. The GI50 (SNB-19 CNS) was 484 nM, the TGI (SNB-19 CNS) was 1950 nM and the GI50 (RXF 393 renal) was 524 nM. The TGI (RXF 393 renal) was 2040 nM, the GI50 (HCT-15 colon) was 8790 nM and the TGI (HCT-15 colon) was 22300 nM. For the same compound, the GI50 (HT29 colon) was 511 nM, the TGI (HT29 colon) was 2020 nM and the GI50 (U251 CNS) was 392 nM. For the same compound, the TGI (U251 CNS) was 1450 nM, the GI50 (LOX IMVI melanoma) was 1110 nM and the TGI (LOX IMVI melanoma) was 2350 nM. For the same compound, the GI50 (A549 NSCLC) was 1650 nM, the TGI (A549 NSCLC) was 11500 nM and the GI50 (HL-60(TB) leukemia) was 234 nM. For the same compound, the TGI (HL-60(TB) leukemia) was 674 nM, the GI50 (HOP-62 NSCLC) was 2420 nM and the TGI (HOP-62 NSCLC) was 7120 nM. It also gave a GI50 (SF-268 CNS) of 1470 nM, a TGI (SF-268 CNS) of 3490 nM and a GI50 (UACC-257 melanoma) of 792 nM. The TGI (UACC-257 melanoma) was 2310 nM, the GI50 (MALME-3M melanoma) was 1130 nM and the TGI (MALME-3M melanoma) was 2410 nM. It also gave a GI50 (RPMI-8226 leukemia) of 299 nM, a TGI (RPMI-8226 leukemia) of 969 nM and a GI50 (T-47D breast) of 383 nM. It also gave a TGI (T-47D breast) of 2830 nM, a GI50 (HCC-2998 colon) of 617 nM and a TGI (HCC-2998 colon) of 1850 nM. For the same compound, the GI50 (HOP-92 NSCLC) was 520 nM, the TGI (HOP-92 NSCLC) was 2640 nM and the GI50 (MDA-MB-468 breast) was 264 nM. It also gave a TGI (MDA-MB-468 breast) of 799 nM.
